Assay [1] deals with pERK1/2 (T202/Y204), pMEK1/2 (S217/221). Description: Immunoblots and immunoprecipitations of MAPK pathway proteins in treated cells. Type of assay: cell-based, human. The following applies: for pERK expression, in combination with PLX4720: ectopic COT expression, 1 μM each, versus single-agent PLX4720 up to 10 μM. How it is done: Cells were washed twice with ice-cold PBS and lysed with 1% NP-40 buffer [150 mM NaCl, 50 mM Tris pH 7.5, 2 mM EDTA pH 8, 25 mM NaF and 1% NP-40] containing 2× protease inhibitors (Roche) and 1× Phosphatase Inhibitor Cocktails I and II (CalBioChem). Lysates were quantified (Bradford assay), normalized, reduced, denatured (95° C.) and resolved by SDS gel electrophoresis on 10% Tris/Glycine gels (Invitrogen). Protein was transferred to PVDF membranes and probed with primary antibodies recognizing pERK1/2 (T202/Y204), pMEK1/2 (S217/221), MEK1/2, MEK1, MEK2, C-RAF (rabbit host), pC-RAF (pS338) (Cell Signaling Technology; 1:1,000), V5-HRP (Invitrogen; (1:5,000), COT (1:500), B-RAF (1:2,000), Actin (1:1,000), Actin-HRP (1:1,000; Santa Cruz)), C-RAF (mouse host; 1:1,000; BD Transduction Labs), Vinculin (Sigma; 1:20,000), AXL (1:500; R&D Systems). After incubation with the appropriate secondary antibody (anti-rabbit, anti-mouse IgG, HRP-linked; 1:1,000 dilution, Cell Signaling Technology or anti-goat IgG, HRP-linked; 1:1,000 dilution; Santa Cruz), proteins were detected using chemiluminescence (Pierce). Immunoprecipitations were performed overnight at 4° C. in 1% NP-40 lysis buffer, as described above, at a concentration of 1 μg/μl total protein using an antibody recognizing C-RAF (1:50; Cell Signaling Technology). Antibody: antigen complexes were bound to Protein A agarose (25 μL, 50% slurry; Pierce) for 2 hrs. at 4° C. Beads were centrifuged and washed three times in lysis buffer and eluted and denatured (95° C.) in 2× reduced sample buffer (Invitrogen). Immunoblots were performed as above. Phospho-protein quantification was performed using NIH Image J.

The test system of another assay is B-RAF^V600E cell lines. Description: Pharmacologic growth inhibition assays (WST1 viability, GI50, single-dose studies). Type of assay: cell-based, human. The following applies: for cell growth, in combination with PLX4720: ectopic COT expression, 1 μM each, versus single-agent PLX4720 up to 10 μM. The procedure: Cultured cells were seeded into 96-well plates (3,000 cells per well) for all melanoma cell lines; 1,500 cells were seeded for A375. Twenty-four hours after seeding, serial dilutions of the relevant compound were prepared in DMSO added to cells, yielding final drug concentrations ranging from 100 μM to […], with the final volume of DMSO not exceeding 1%. Cells were incubated for 96 h following addition of drug. Cell viability was measured using the WST1 viability assay (Roche). Viability was calculated as a percentage of control (untreated cells) after background subtraction. A minimum of six replicates were performed for each cell line and drug combination. Data from growth-inhibition assays were modeled using a nonlinear regression curve fit with a sigmoid dose-response. […] Sigmoid-response curves that crossed the 50% inhibition point at or above 10 μM have GI50 values annotated as >10 μM. For single-dose studies, the identical protocol was followed, using a single dose of indicated drug (1 μM unless otherwise noted).
(Tetrazolium assays rely on reduction of a dye to a coloured formazan, in cell work by metabolically active cells.)

For a further assay, the system named is COT mRNA. Description: Quantitative RT-PCR of COT mRNA in lesion-matched biopsies of PLX4032-treated metastatic melanoma patients. Type of assay: in vivo, human. The following applies: 3 patients with metastatic B-RAF^V600E melanoma, on-treatment vs pre-treatment biopsies. An excerpt: Biopsied tumor material consisted of discarded and de-identified tissue that was obtained with informed consent and characterized under protocol 02-017 (paired samples, Massachusetts General Hospital) and 07-087 (unpaired sample, Dana-Farber Cancer Institute). For paired specimens, ‘on-treatment’ samples were collected 10-14 days after initiation of PLX4032 treatment (Table 6).
mRNA was extracted from cell lines and fresh-frozen tumors using the RNeasy kit (Qiagen). Total mRNA was used for subsequent reverse transcription using the SuperScript III First-Strand Synthesis SuperMix (Invitrogen) for cell lines and unpaired tumor samples, and the SuperScript VILO cDNA synthesis kit (Invitrogen) for paired frozen tumor samples. 5 μl of the RT reaction was used for quantitative PCR using SYBR Green PCR Master Mix and gene-specific primers, in triplicate, using an ABI 7300 Real Time PCR System. Primers used for detection are as follows: […]

A further assay deals with T1, COT (Homo sapiens, UniProt P41279).
T1 construct: endogenous in cells; host or cells: RPMI-7951 (ATCC), MAP3K8/COT-amplified, B-RAF V600E melanoma line
Description: Inhibition of COT kinase activity in RPMI-7951 cells (MEK/ERK phosphorylation immunoblot). Format: cell-based. The following applies: 1 h treatment. In general terms: A western blot detects proteins with antibodies after separation by electrophoresis.

The test system of the next assay is A375 cells. Description: High throughput ORF screening: viability of A375 expressing the kinase ORF collection in 1 μM PLX4720 relative to untreated, normalized to MEK1DD (Cell Titer-Glo). Type of assay: cell-based, human. (In general: In ATP-based viability assays light output follows the ATP content of the culture.)

The results in this text go back to patent US11078540B2, “Methods of diagnosing and treating cancer in patients having or developing resistance to a first cancer therapy” (DANA-FARBER CANCER INSTITUTE, INC., priority 2010, dated 2021).

Description for A375 cells: A375 melanoma cells were plated in 384-well microtiter plates (500 cells per well). The following day, cells were spin-infected with the lentivirally-packaged kinase ORF library in the presence of 8 ug/ml polybrene. 48 hours post-infection, media was replaced with standard growth media (2 replicates), media containing 1 μM PLX4720 (2 replicates, 2 time points) or media containing 10 ug/ml blasticidin (2 replicates). After four days and 6 days, cell growth was assayed using Cell Titer-Glo (Promega) according to manufacturer instructions. The entire experiment was performed twice.
Raw luminescence values were imported into Microsoft Excel. Infection efficiency was determined by the percentage of duplicate-averaged raw luminescence in blasticidin selected cells relative to non-selected cells. ORFs with an infection efficiency of less than 0.70 were excluded from further analysis along with any ORF having a standard deviation of >15,000 raw luminescence units between duplicates. To identify ORFs whose expression affects proliferation, we compared the duplicate-averaged raw luminescence of individual ORFs against the average and standard deviation of all control-treated cells via the z-score, or standard score, below,
[formula] where x=average raw luminescence of a given ORF, μ=the mean raw luminescence of all ORFs and σ=the standard deviation of the raw luminescence of all wells. Any individual ORF with a z-score>+2 or <−2 was annotated as affecting proliferation and removed from final analysis. Differential proliferation was determined by the percentage of duplicate-averaged raw luminescence values in PLX4720 (1 μM) treated cells relative to untreated cells. […] MEK1^DD normalized differential proliferation for each individual ORF was averaged across two duplicate experiments, with two time points for each experiment (day 4 and day 6). A z-score was then generated, as described above for average MEK1^DD normalized differential proliferation. ORFs with a z-score of >2 were considered hits and were followed up in the secondary screen.

Take `Cn1cnc2c(F)c(Nc3ccc(Br)cc3Cl)c(C(=O)NOCCO)cc21` [AZD6244]: in assay [1], the “pERK expression, in combination with PLX4720” value is “more effectively than did single-agent PLX4720”. In addition, the “cell growth, in combination with PLX4720” value in the assay with B-RAF^V600E cell lines is on record as “more effectively than did single-agent PLX4720”.

Consider `O=C(NOCC1CC1)c1ccc(F)c(F)c1Nc1ccc(I)cc1Cl` [CI-1040], for which, in assay [1] (OUMS-23 and RPMI-7951, 1 μM CI-1040), the ERK phosphorylation result is “sustained ERK phosphorylation”. The “pERK expression, in combination with PLX4720” value in assay [1] was “more effectively than did single-agent PLX4720”. The “sensitivity to MEK inhibitor with ectopic COT expression” value with B-RAF^V600E cell lines (A375 and SKMEL28 cells ectopically expressing COT) was “decreased sensitivity”. Moreover, in the assay on B-RAF^V600E cell lines (B-RAF^V600E cell lines), the “sensitivity of cell lines with aberrant MAP3K8/COT copy number/expression” value was “insensitive”. Moreover, in the assay with B-RAF^V600E cell lines (OUMS-23 and RPMI-7951 cell lines), the “sensitivity to MEK inhibition (growth)” value is “refractory”. Also, the “cell growth, in combination with PLX4720” value with B-RAF^V600E cell lines was “more effectively than did single-agent PLX4720”.

Take `CCCS(=O)(=O)Nc1ccc(F)c(C(=O)c2c[nH]c3ncc(-c4ccc(Cl)cc4)cc23)c1F` [PLX4032]: in the assay on COT mRNA, the “COT mRNA expression concurrent with treatment” value is reported as “increased COT mRNA expression”.

As for `CN(c1cccnc1)c1cc2c(Nc3ccc(F)c(Cl)c3)c(C#N)cnc2cn1` [small molecule COT kinase inhibitor, 4-(3-Chloro-4-fluorophenylamino)-6-(pyridin-3-yl-methylamino)-3-cyano-[1,7]-naphthyridine], the “MEK and ERK phosphorylation” value on COT is on record as “dose-dependent suppression”.

Consider CCL4, for which the “Z-SCORE of average differential proliferation (1 μM PLX4720/control)” value in the assay on A375 cells (A375 cells expressing the named ORF, relative to mean of all ORFs (44.26%, SD 7.19%)) is recorded as −0.13. Also, in the assay with A375 cells (A375 cells expressing the named kinase-related ORF, 1 μM PLX4720 vs untreated control, normalized to MEK DD), the “AVERAGE differential proliferation (1 μM PLX4720/control), relative to MEK DD” value amounted to 43.30%.
